As usually defined, the IC50 is the point on the concentration scale where inhibition reaches its midpoint.

Each structure is given as a SMILES string. Where only a bound is given, the exact number is not on record here.

We go through 16 compounds from the Kinase Knowledgebase extract (Sharma et al. 2016).

Sequence of EGFR (murine) (P00533 whole entry, looked up): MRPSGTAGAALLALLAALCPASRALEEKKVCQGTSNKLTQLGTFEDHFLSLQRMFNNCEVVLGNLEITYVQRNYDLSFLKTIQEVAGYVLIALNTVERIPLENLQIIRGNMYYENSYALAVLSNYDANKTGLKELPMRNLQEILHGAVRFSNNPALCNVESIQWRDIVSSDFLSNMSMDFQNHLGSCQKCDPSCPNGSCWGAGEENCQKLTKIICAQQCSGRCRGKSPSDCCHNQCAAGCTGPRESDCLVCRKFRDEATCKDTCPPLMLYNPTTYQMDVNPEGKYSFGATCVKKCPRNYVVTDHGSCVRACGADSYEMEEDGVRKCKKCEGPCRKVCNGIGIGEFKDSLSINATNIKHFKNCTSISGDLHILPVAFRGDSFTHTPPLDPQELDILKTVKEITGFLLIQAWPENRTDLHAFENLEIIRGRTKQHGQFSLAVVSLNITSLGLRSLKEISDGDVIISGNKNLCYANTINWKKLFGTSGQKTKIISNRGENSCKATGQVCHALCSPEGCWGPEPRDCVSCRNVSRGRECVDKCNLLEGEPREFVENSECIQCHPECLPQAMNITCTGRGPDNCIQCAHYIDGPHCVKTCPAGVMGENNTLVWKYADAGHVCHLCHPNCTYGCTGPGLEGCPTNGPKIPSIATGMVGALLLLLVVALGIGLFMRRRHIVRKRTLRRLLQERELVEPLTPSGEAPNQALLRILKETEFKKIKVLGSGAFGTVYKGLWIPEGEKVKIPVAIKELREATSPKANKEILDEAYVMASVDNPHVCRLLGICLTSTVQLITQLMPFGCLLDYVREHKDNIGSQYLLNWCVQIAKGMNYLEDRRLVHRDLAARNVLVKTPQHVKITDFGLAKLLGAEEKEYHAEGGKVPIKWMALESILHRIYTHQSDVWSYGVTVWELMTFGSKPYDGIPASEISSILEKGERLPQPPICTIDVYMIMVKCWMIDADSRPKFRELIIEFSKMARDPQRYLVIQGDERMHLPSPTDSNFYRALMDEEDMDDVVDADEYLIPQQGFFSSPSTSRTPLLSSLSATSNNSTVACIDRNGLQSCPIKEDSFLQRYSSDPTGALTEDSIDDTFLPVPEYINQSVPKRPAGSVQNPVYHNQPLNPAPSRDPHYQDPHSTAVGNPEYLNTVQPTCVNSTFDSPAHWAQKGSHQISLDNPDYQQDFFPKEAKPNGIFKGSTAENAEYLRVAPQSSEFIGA

The experiment addresses EGFR (murine) (UniProt P00533). Conditions: nih3t3/c7.
As for `Cc1[nH]c(/C=C2\C(=O)Nc3ncccc32)c(C)c1CCC(=O)O`, the half-inhibitory concentration (IC50) was over 50 µM. In the case of `CC(=O)c1[nH]c(/C=C2\C(=O)Nc3ccccc32)c(C)c1C`, the IC50 is over 100 µM. `COC(=O)CCc1c[nH]c(/C=C2\C(=O)Nc3cc(OC)c(OC)cc32)c1C` gave a 50% inhibitory concentration (IC50) of over 50 µM. Turning to `CCc1c(/C=C2\C(=O)Nc3ccccc32)[nH]c(C(=O)O)c1C`, the IC50 was over 100 µM.

`O=C1Nc2ncccc2/C1=C/c1cc2c([nH]1)CCCC2` came in with an IC50 of 29.9 µM. In the case of `COC(=O)Cc1c(Cl)[nH]c(/C=C2\C(=O)Nc3ccccc32)c1C(=O)OC` it was over 50 µM; in that of `CCOC(=O)CCc1c(C(=O)OCC)[nH]c(/C=C2\C(=O)Nc3ccccc32)c1CC(=O)OCC`, over 10 µM; in that of `CCOC(=O)c1[nH]c(/C=C2\C(=O)Nc3ccccc32)c(C(C)=O)c1C`, over 10 µM. Next, `CCOC(=O)c1c(C)[nH]c(/C=C2\C(=O)Nc3ccc(NC(=O)c4ccc(C(=O)OC)cc4)cc32)c1C`: over 10 µM; `Cc1c(/C=C2\C(=O)Nc3ncccc32)[nH]c2c1CCCC2`: 38.2 µM; `COC(=O)CCc1c[nH]c(/C=C2\C(=O)Nc3ccccc32)c1C`: over 100 µM. Next, `O=C(O)CCc1c(/C=C2\C(=O)Nc3ncccc32)[nH]c2c1CCCC2`: 12.5 µM; `Cc1c[nH]c(/C=C2\C(=O)Nc3ccccc32)c1CC(=O)O`: over 100 µM. `CCOC(=O)c1c(C)[nH]c(/C=C2\C(=O)Nc3ccc(Br)cc32)c1C` yielded an IC50 of over 25 µM.

For the compound `Cc1cc(C)c(/C=C2\C(=O)Nc3ncccc32)[nH]1`, the IC50 was over 100 µM.

`Cc1c(CCC(=O)O)c[nH]c1/C=C1\C(=O)Nc2ncccc21` came in with an IC50 of over 25 µM.
